Results reported in PubChem BioAssay AID256 (DTP/NCI, 2004).
Inconclusive results and toxic doses are left out. How the source made its calls: active means survival T/C of 150% or more; inactive means T/C below 125% in these data.

System: CD2F1 mice, L1210 leukemia ip, survival T/C
Assay: NCI In Vivo Anticancer Drug Screen. Data for tumor model L1210 Leukemia (intraperitoneal) in CD2F1 (CDF1) mice
Settings: higher = longer survival
Outline: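 Each value reflects a quotient of treated over vehicle control outcomes in mice with a transplanted tumor.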

[1] = endpoint: mean survival time, dose: 100.0 mg/kg/injection, schedule: Q01DX009 (ip), vehicle: saline with Tween-80
[2] = endpoint: mean survival time, dose: 100.0 mg/kg/injection, schedule: Q04DX003 (ip), vehicle: saline with Tween-80
[3] = endpoint: mean survival time, dose: 200.0 mg/kg/injection, schedule: Q01DX009 (ip), vehicle: saline with Tween-80
[4] = endpoint: mean survival time, dose: 200.0 mg/kg/injection, schedule: Q04DX003 (ip), vehicle: saline with Tween-80
[5] = endpoint: mean survival time, dose: 400.0 mg/kg/injection, schedule: Q01DX009 (ip), vehicle: saline with Tween-80
[6] = endpoint: mean survival time, dose: 400.0 mg/kg/injection, schedule: Q04DX003 (ip), vehicle: saline with Tween-80
[7] = endpoint: mean survival time, dose: 100.0 mg/kg/injection, schedule: Q04DX003 (ip), vehicle: saline
[8] = endpoint: mean survival time, dose: 12.5 mg/kg/injection, schedule: Q01DX009 (ip), vehicle: saline with Tween-80
[9] = endpoint: mean survival time, dose: 50.0 mg/kg/injection, schedule: Q01DX009 (ip), vehicle: saline with Tween-80

Measured: T/C

CC(C)C(Br)C(N)=O (stereo not given)
inactive: endpoint: mean survival time, dose: 100.0 mg/kg/injection, schedule: Q01DX009 (ip), vehicle: saline sonified 97 % of control | endpoint: mean survival time, dose: 200.0 mg/kg/injection, schedule: Q01DX009 (ip), vehicle: saline sonified 89 % of control | endpoint: mean survival time, dose: 400.0 mg/kg/injection, schedule: Q01DX009 (ip), vehicle: saline sonified 87 % of control

NC(=O)c1c(F)cccc1Cl
inactive: [1] 102 % of control | [2] 101 % of control | [3] 105 % of control | [4] 98 % of control | [5] 102 % of control | [6] 106 % of control

[Cl][Pt+2][Cl].[NH-]c1ccccc1-c1ccccc1[NH-]
inactive: endpoint: mean survival time, dose: 3.13 mg/kg/injection, schedule: Q04DX003 (ip), vehicle: saline 104 % of control | endpoint: mean survival time, dose: 6.25 mg/kg/injection, schedule: Q04DX003 (ip), vehicle: saline 109 % of control | endpoint: mean survival time, dose: 12.5 mg/kg/injection, schedule: Q04DX003 (ip), vehicle: saline 120 % of control | endpoint: mean survival time, dose: 25.0 mg/kg/injection, schedule: Q04DX003 (ip), vehicle: saline 113 % of control | endpoint: mean survival time, dose: 50.0 mg/kg/injection, schedule: Q04DX003 (ip), vehicle: saline 109 % of control | [7] 94 % of control

Cc1cc(N(CCOS(C)(=O)=O)CCOS(C)(=O)=O)ccc1C=Nc1ccc(C(=O)O)c(O)c1
inactive: endpoint: mean survival time, dose: 4.0 mg/kg/injection, schedule: Q01DX009 (ip), vehicle: saline with Tween-80 118 % of control | endpoint: mean survival time, dose: 6.0 mg/kg/injection, schedule: Q01DX009 (ip), vehicle: saline with Tween-80 111 % of control | [8] 123 % of control

O=[N+]([O-])c1ccc(N/N=C/c2ccnc3ccccc23)cc1
inactive: endpoint: mean survival time, dose: 100.0 mg/kg/injection, schedule: Q04DX003 (ip), vehicle: Klucel (hydroxypropylcellulose) (HPC) 89 % of control | endpoint: mean survival time, dose: 200.0 mg/kg/injection, schedule: Q04DX003 (ip), vehicle: Klucel (hydroxypropylcellulose) (HPC) 91 % of control | endpoint: mean survival time, dose: 400.0 mg/kg/injection, schedule: Q04DX003 (ip), vehicle: Klucel (hydroxypropylcellulose) (HPC) 97 % of control

CN1CCC(CO)C1 (stereo not given)
inactive: endpoint: mean survival time, dose: 25.0 mg/kg/injection, schedule: Q01DX009 (ip), vehicle: water 91 % of control | endpoint: mean survival time, dose: 50.0 mg/kg/injection, schedule: Q01DX009 (ip), vehicle: saline 109 % of control | endpoint: mean survival time, dose: 50.0 mg/kg/injection, schedule: Q01DX009 (ip), vehicle: water 87 % of control | endpoint: mean survival time, dose: 100.0 mg/kg/injection, schedule: Q01DX009 (ip), vehicle: saline 101 % of control | endpoint: mean survival time, dose: 100.0 mg/kg/injection, schedule: Q01DX009 (ip), vehicle: water 87 % of control | [7] 96 % of control | endpoint: mean survival time, dose: 200.0 mg/kg/injection, schedule: Q01DX009 (ip), vehicle: saline 101 % of control | endpoint: mean survival time, dose: 200.0 mg/kg/injection, schedule: Q01DX009 (ip), vehicle: water 89 % of control | endpoint: mean survival time, dose: 200.0 mg/kg/injection, schedule: Q04DX003 (ip), vehicle: saline 97 % of control

CCC(CC)n1c(C)cc(=O)n1C(CC)CC
inactive: endpoint: mean survival time, dose: 5.0 mg/kg/injection, schedule: Q01DX001 (ip), vehicle: saline 97 % of control | endpoint: mean survival time, dose: 10.0 mg/kg/injection, schedule: Q01DX001 (ip), vehicle: saline 97 % of control | endpoint: mean survival time, dose: 20.0 mg/kg/injection, schedule: Q01DX001 (ip), vehicle: saline 95 % of control

O=C(NNC1CCCCC1)c1ccccc1
inactive: endpoint: mean survival time, dose: 100.0 mg/kg/injection, schedule: Q01DX009 (ip), vehicle: acetone 103 % of control

CCOC(=O)CCSCCC(=O)OCC
inactive: [2] 100 % of control | [4] 96 % of control | [6] 98 % of control

O=C(Nc1ccc(F)c(Cl)c1)N(CCO)C1CCCCC1
inactive: endpoint: mean survival time, dose: 50.0 mg/kg/injection, schedule: Q01DX009 (ip), vehicle: Klucel (hydroxypropylcellulose) (HPC) 91 % of control | endpoint: mean survival time, dose: 100.0 mg/kg/injection, schedule: Q01DX009 (ip), vehicle: Klucel (hydroxypropylcellulose) (HPC) 102 % of control | endpoint: mean survival time, dose: 200.0 mg/kg/injection, schedule: Q01DX009 (ip), vehicle: Klucel (hydroxypropylcellulose) (HPC) 95 % of control

O=C1C=C(CCc2ccccc2)CCC1
inactive: [1] 107 % of control | [3] 107 % of control | [5] 108 % of control

CCCC(P(=O)(c1ccccc1)c1ccccc1)[P+](CC)(c1ccccc1)c1ccccc1 (stereo not given)
inactive: endpoint: mean survival time, dose: 6.25 mg/kg/injection, schedule: Q04DX002 (ip), vehicle: saline with Tween-80 100 % of control | endpoint: mean survival time, dose: 12.5 mg/kg/injection, schedule: Q04DX002 (ip), vehicle: saline with Tween-80 96 % of control | endpoint: mean survival time, dose: 25.0 mg/kg/injection, schedule: Q04DX002 (ip), vehicle: saline with Tween-80 92 % of control

CN/N=C/c1ccc(O)c(OC)c1
inactive: [1] 91 % of control | [3] 87 % of control

COc1nc2c(N)ncnc2n1C1OC(CO)C(O)C1O (stereo not given)
inactive: endpoint: mean survival time, dose: 100.0 mg/kg/injection, schedule: Q04DX002 (ip), vehicle: saline with Tween-80 103 % of control | endpoint: mean survival time, dose: 200.0 mg/kg/injection, schedule: Q04DX002 (ip), vehicle: saline with Tween-80 103 % of control | endpoint: mean survival time, dose: 400.0 mg/kg/injection, schedule: Q04DX002 (ip), vehicle: saline with Tween-80 96 % of control

O=C(O)/C=C/C(=O)NNC(=O)/C=C/C(=O)O
inactive: [9] 94 % of control | [1] 96 % of control | [3] 91 % of control

CCc1c(C)c(=O)n(C)c2ccccc12
inactive: [2] 98 % of control | [4] 101 % of control | [6] 102 % of control

CC(=O)OCC(OC(C)=O)C(OC(C)=O)C(OC(C)=O)C(OC(C)=O)C(=O)C=O (stereo not given)
inactive: [9] 101 % of control | [1] 101 % of control | [3] 109 % of control

CC(=O)C(Cl)C(=O)c1c(C)[nH]n(-c2ccccc2)c1=O (stereo not given)
inactive: endpoint: median survival time, dose: 25.0 mg/kg/injection, schedule: Q01DX005 (ip), vehicle: Klucel (hydroxypropylcellulose) (HPC) 112 % of control | endpoint: median survival time, dose: 50.0 mg/kg/injection, schedule: Q01DX005 (ip), vehicle: Klucel (hydroxypropylcellulose) (HPC) 111 % of control | endpoint: median survival time, dose: 100.0 mg/kg/injection, schedule: Q01DX005 (ip), vehicle: Klucel (hydroxypropylcellulose) (HPC) 111 % of control

CCCC(O)C1CCCCC1O (stereo not given)
inactive: [1] 92 % of control | [3] 92 % of control | [5] 96 % of control

CCCCCCCCCCCCNC(=O)c1ccc[n+](Cc2ccc(Cl)c(Cl)c2)c1
inactive: [8] 98 % of control | endpoint: mean survival time, dose: 12.5 mg/kg/injection, schedule: Q04DX003 (ip), vehicle: saline sonified 98 % of control | endpoint: mean survival time, dose: 25.0 mg/kg/injection, schedule: Q04DX003 (ip), vehicle: saline sonified 98 % of control | endpoint: mean survival time, dose: 50.0 mg/kg/injection, schedule: Q04DX003 (ip), vehicle: saline sonified 95 % of control

CC1=CCC(C(C)(C)c2ccc(O)cc2)CC1 (stereo not given)
inactive: endpoint: mean survival time, dose: 25.0 mg/kg/injection, schedule: Q01DX009 (ip), vehicle: saline with Tween-80 94 % of control | [9] 110 % of control | [1] 98 % of control | [2] 90 % of control | [3] 96 % of control | [4] 104 % of control | [6] 90 % of control

COC(=O)CC1C2CCc3cc(OC)ccc3C2CCC1(C)C(=O)OC (stereo not given)
inactive: [1] 97 % of control | [3] 101 % of control | [5] 94 % of control
